Reference: US10485844B2, “Methods for treating severe atopic dermatitis by administering an IL-4R inhibitor” (Regeneron Pharmaceuticals, Inc., priority 2016, dated 2019)
“Also recorded” adds a separate entry of the source.

What was measured:
[1] = tested on: adults with moderate-to-severe AD; experiment: 1-year placebo-controlled trial of dupilumab + TCS: subgroup analysis by CsA eligibility / CsA history; assay type: in vivo, human; conditions: for proportion of patients achieving a 75% improvement in EASI / proportion of patients achieving a ≥4-point improvement in peak pruritus numerical rating scale / Patients achieving EASI-75, n (%) / Patients achieving a peak pruritus NRS score improvement ≥4 points from baseline, n/N1 (%): Week 52; for Patients achieving a peak pruritus NRS score improvement ≥4 points from baseline, n/N1 (%): baseline NRS ≥4
Method: Patients were randomized 3:1:3 (dupilumab 300 mg weekly [qw], every two weeks [q2w], or placebo). Patients received concomitant low and/or medium potency TCS, which could be tapered and discontinued based on clinical response. Topical calcineurin inhibitors could be used in areas considered inadvisable for TCS.
In further analysis, the efficacy and safety of dupilumab vs placebo (PBO) at 52 weeks was compared in two patient (pt) subsets of the population: pts who were earlier treated with CsA but responded inadequately or were intolerant to CsA (subset A; n=114) and the remaining study population (subset B; n=509). Subset A pts had, on average, more severe disease than subset B pts, as assessed by Eczema Area and Severity Index (EASI) (mean baseline±SD EASI score 37.0±12.70 vs 31.6±12.77; nominal p<0.0001 [post-hoc analysis]).

[2] = Phase 2a pediatric study: pharmacokinetic profile of dupilumab; assay type: in vivo, human; conditions: pediatric patients with AD, compared with adults
Method: (§1) The study consisted of a screening period (day −35 to day −1), a baseline visit, Part A (including a single-dose treatment followed by an 8-week semi-dense PK sampling period), and Part B (including a 4-week repeat-dose treatment period [4 weekly doses] followed by an 8-week follow-up period).
(§2) Safety and tolerability was assessed by vital signs, physical examinations, clinical laboratory tests, and clinical evaluations. Patients were asked to monitor all adverse events (AEs) experienced from the time of informed consent/assent until their last study visit. Serum samples were collected for assay of dupilumab levels, and PK parameters were calculated using the dupilumab concentration data. Serum samples were collected for assay of ADA, and exploratory analyses. Efficacy was assessed during the study at specified clinic visits using the Pruritus NRS, SCORAD, and EASI that measure the extent and severity of AD, and the IGA that rates the overall severity of AD.

[3] = tested on: pediatric patients with moderate-to-severe AD (adolescents) or severe AD (children); experiment: Phase 2a open-label ascending-dose study of dupilumab in pediatric AD (efficacy and safety); assay type: in vivo, human; conditions: for patients who achieved IGA 0-1 / peak pruritus NRS improved by / baseline EASI improved by: Week 12; for baseline EASI improved by: after repeated weekly doses; for reduction in EASI score from baseline: week 2
Method: This Example describes a phase 2a, multicenter, open-label, ascending-dose, sequential-cohort study (NCT02407756) which included adolescents (12-17 years) with moderate-to-severe AD and children (6-11 years) with severe AD, uncontrolled by topical medications. Patients received 2 mg/kg or 4 mg/kg single-dose subcutaneous dupilumab with 8 weeks follow-up, followed by 4 weekly 2 mg/kg or 4 mg/kg doses.
This was conducted as a phase 2a, multicenter, open-label, ascending dose, sequential cohort study investigating the safety, tolerability, pharmacokinetics (PK), immunogenicity, and efficacy of single-dose and repeat-doses of subcutaneously administered (SC) dupilumab in pediatric patients with moderate-to-severe AD (for adolescents ≥12 to <18 years of age) or severe AD (for children ≥6 to <12 years of age) that was not adequately controlled by topical treatments.
Two sequential ascending SC dose cohorts were planned: dose cohort 1 (2 mg/kg) and dose cohort 2 (4 mg/kg) up to a maximum dose of 300 mg. Within each dose cohort, approximately 36 to 40 patients were planned to be enrolled in 2 age subsets: subset A (adolescents ≥12 to <18 years of age) and subset B (children ≥6 to <12 years of age). Enrollment and study dosing started with cohort 1A (2 mg/kg, adolescent age subset) and proceeded in sequence to cohort 1B (2 mg/kg, children ≥6 to <12 years of age subset), cohort 2A (4 mg/kg, adolescent age subset), and cohort 2B (4 mg/kg, children ≥6 to <12 years of age subset); a safety review of data from the previous cohort(s) was performed before proceeding to the next cohort.
as §1
Sterile dupilumab drug product 150 mg/mL was provided in an aqueous buffered vehicle, pH 5.0. It was supplied in a 5-mL vial containing 2.5 mL (150 mg/mL) with a withdrawable volume of 2.0 mL or 300 mg of dupilumab. Study drug was administered SC by the investigator or other qualified study personnel at the following dose and dosing schedules: • For dose cohort 1: 2 mg/kg at day 1 as a single dose in Part A, then weekly at day 1 to week 3 in Part B as repeat doses • For dose cohort 2: 4 mg/kg at day 1 as a single dose in Part A, then weekly at day 1 to week 3 in Part B as repeat doses
The primary objective was characterizing the PK profiles of dupilumab in pediatric AD patients aged ≥6 to <18 years. The secondary endpoints were: • Incidence of TEAEs • Percent change from baseline in Eczema Area and Severity Index (EASI) • Percent change from baseline in SCORing Atopic Dermatitis (SCORAD) score • Percent change from baseline in Pruritus Numerical Rating Scale (NRS) • Percentage of patients with an IGA score of 0 or 1 • Change from baseline in % BSA affected by AD Study Variables and Procedures
as §2

[4] = tested on: CYP3A; experiment: Effect of dupilumab on PK of CYP substrate cocktail: midazolam; conditions: 600 mg loading dose, then 300 mg weekly
Method: Subcutaneous dupilumab was administered as a 600 mg loading dose on Day 8, followed by a weekly dose of 300 mg from Day 15 to Day 50. PK parameters included Geometric Mean Ratios (GMR) of AUClast (area under the plasma concentration-time curve from time zero to the time of the last quantifiable concentration) and Cmax (maximum observed plasma concentration) measured at Day 1 and Day 36, while efficacy assessments included changes in Eczema Area and Severity Index (EASI) scores (scale 0-72).

Substance: dupilumab: fully human anti-IL-4R antibody; heavy chain SEQ ID NO: 9, light chain SEQ ID NO: 10
- treatment-emergent adverse event (TEAE) rate ([1]; CSA-eligible, dupilumab q2w): 87.2%
- treatment-emergent adverse event (TEAE) rate ([1]; CSA-eligible, dupilumab qw): 81.7%
- treatment-emergent adverse event (TEAE) rate ([1]; CSA-ineligible, dupilumab q2w): 91.7%
- treatment-emergent adverse event (TEAE) rate ([1]; CSA-ineligible, dupilumab qw): 88.5%
- proportion of patients achieving a 75% improvement in EASI ([1]; CsA-eligible, dupilumab 300 mg q2w + TCS): 69.1%
- proportion of patients achieving a 75% improvement in EASI ([1]; CsA-eligible, dupilumab 300 mg qw + TCS): 67.0%
- proportion of patients achieving a ≥4-point improvement in peak pruritus numerical rating scale ([1]; CsA-eligible, dupilumab q2w): 53.8%
- proportion of patients achieving a ≥4-point improvement in peak pruritus numerical rating scale ([1]; CsA-eligible, dupilumab qw): 39.7%
- proportion of patients achieving a 75% improvement in EASI ([1]; CsA-ineligible, dupilumab 300 mg q2w + TCS): 52.4%
- proportion of patients achieving a 75% improvement in EASI ([1]; CsA-ineligible, dupilumab 300 mg qw + TCS): 50.0%
- proportion of patients achieving a ≥4-point improvement in peak pruritus numerical rating scale ([1]; CsA-ineligible, dupilumab q2w): 42.9%
- proportion of patients achieving a ≥4-point improvement in peak pruritus numerical rating scale ([1]; CsA-ineligible, dupilumab qw): 35.6%
- Patients achieving EASI-75, n (%) ([1]; Subset A (inadequate response or intolerance to CsA), Dupilumab 300 mg Q2W ± TCS (N = 19)): (52.6) %
- Patients achieving a peak pruritus NRS score improvement ≥4 points from baseline, n/N1 (%) ([1]; Subset A, Dupilumab 300 mg Q2W ± TCS): (47.4) %
- Patients achieving EASI-75, n (%) ([1]; Subset A, Dupilumab 300 mg QW ± TCS (N = 43)): (48.8) %
- Patients achieving a peak pruritus NRS score improvement ≥4 points from baseline, n/N1 (%) ([1]; Subset A, Dupilumab 300 mg QW ± TCS): (38.1) %
- Patients achieving EASI-75, n (%) ([1]; Subset B (remaining study population), Dupilumab 300 mg Q2W ± TCS (N = 70)): (68.6) %
- Patients achieving a peak pruritus NRS score improvement ≥4 points from baseline, n/N1 (%) ([1]; Subset B, Dupilumab 300 mg Q2W ± TCS): (52.2) %
- Patients achieving EASI-75, n (%) ([1]; Subset B, Dupilumab 300 mg QW ± TCS (N = 227)): (67.0) %
- Patients achieving a peak pruritus NRS score improvement ≥4 points from baseline, n/N1 (%) ([1]; Subset B, Dupilumab 300 mg QW ± TCS): (39.1) %
- pharmacokinetic profile [2]: consistent with adults
- patients who achieved IGA 0-1 ([3]; adolescent 2 mg cohort): 10%
- peak pruritus NRS improved by ([3]; adolescent 2 mg cohort): 30.8%
- baseline EASI improved by ([3]; adolescent 2 mg cohort): 66.4%
- patients who achieved IGA 0-1 ([3]; adolescent 4 mg cohort): 35%
- peak pruritus NRS improved by ([3]; adolescent 4 mg cohort): 37.6%
- baseline EASI improved by ([3]; adolescent 4 mg cohort): 69.7%
- reduction in EASI score from baseline ([3]; adolescent patients, single dose 2 mg/kg): 34%
- reduction in EASI score from baseline ([3]; adolescent patients, single dose 4 mg/kg): 51%
- patients who achieved IGA 0-1 ([3]; children 2 mg/kg cohort): 16.7%
- peak pruritus NRS improved by ([3]; children 2 mg/kg cohort): 41.6%
- baseline EASI improved by ([3]; children 2 mg/kg cohort): 76.2%
- patients who achieved IGA 0-1 ([3]; children 4 mg cohort): 21.1%
- peak pruritus NRS improved by ([3]; children 4 mg cohort): 39.6%
- baseline EASI improved by ([3]; children 4 mg cohort): 63.4%
- reduction in EASI score from baseline ([3]; children, single dose 2 mg/kg): 37%
- reduction in EASI score from baseline ([3]; children, single dose 4 mg/kg): 33%
- safety and tolerability ([3]; single and repeated weekly doses of 2 mg/kg and 4 mg/kg, both pediatric age groups): No new safety signals; also recorded: generally safe and well tolerated
- effect of dupilumab on the PK of midazolam / activity of CYP3A [4]: no meaningful effect; also recorded: does not have a meaningful effect
